Literature values in US11266662B2, “Ganaxolone for use in prophylaxis and treatment of postpartum depression” (Marinus Pharmaceuticals, Inc., priority 2018, dated 2022).

System: patients
Details: 60 μg and 90 μg brexanolone dose regimens, IV infusion; cited from earlier work

For CC(=O)[C@H]1CC[C@H]2[C@@H]3CC[C@H]4C[C@H](O)CC[C@]4(C)[C@H]3CC[C@]12C [brexanolone], the “Patients with abrupt loss of consciousness, syncope or presyncope” value is listed as “about 4%”.
